One data set relates to A549 cells. The data set is described as follows: MTT antiproliferative assay, A549. The class given is cell-based, human. The conditions noted are these: Homo sapiens, read-out: In vitro antiproliferative activity IC50, A549. On the procedure:
(§1) IC50 values of the test compounds against A549, MCF-7, Hela and HepG2 cells were obtained from State Key Laboratory of Pharmaceutical Biotechnology, Nanjing University, and were determined by a standard (MTT)-based colorimetric assay (Beyotime Inst. Biotech., Nanjing, China). Tumor cell lines were grown to mid-log phase and then diluted to […] making sure they were seeded in 96-well plates (Philas, Nanjing, China) at a density of 5 × 10^3–1 × 10^4 cells per well. The outer wells containing 1 × PBS solution of the plate are not used for the assay to avoid the possibility of edge effects. The plate was incubated at 37 °C in a 5% CO2 incubator in DMEM containing 10% fetal bovine serum (FBS, Gibco, Waltham, MA, USA) for 24 h. Then, we added a 100-μL series concentration of drug-containing medium into the wells to maintain the final concentration of drug as 100, 10, 1 and 0.1 μmol/L. After 12 h, cell survival was determined by the addition of a MTT (3-(4,5-dimethylthiazol-2-yl)-2,5-diphenyl trtrazolium bromide) solution (10 μL of 5 mg/mL MTT in 1 × PBS). We waited for 4 h proliferation, discarded the medium and quickly added 150 μL DMSO per well, shaking the plates well for 10 min to ensure complete dissolution. Optical absorbance was measured at 570 nm on a microplate reader (Bio-Rad, Hercules, CA, USA). Survival ratios are expressed in percentages with respect to untreated cells. The experiments were replicated at least three times to verify the methodology reproducibility when using the above-mentioned conditions.
Background: Tetrazolium assays rely on reduction of a dye to a coloured formazan, in cell work by metabolically active cells.

The next data set concerns HepG2 cells. The data set is described as follows: MTT antiproliferative assay, HepG2. The class given is cell-based, human. The conditions noted are these: Homo sapiens, read-out: In vitro antiproliferative activity IC50, HepG2. On the procedure: as §1
A short description of data set [1]: Cytotoxicity test (MTT) on 293T cells. The conditions noted are these: human, 293T human kidney epithelial cells. On the procedure: The cytotoxic activity in vitro was measured by the colorimetric MTT assay. […] For the cytotoxicity assay, 20 μL of MTT (5 mg/mL) was added per well 4 h before the end of the incubation. After removing the supernatant, 200 μL DMSO was added to dissolve the formazan crystals. The absorbance at λ 570 nm was read on an LX300 Epson Diagnostic microplate reader, untreated cells were used as negative controls.

The next data set relates to HeLa cells. The data set can be described thus: MTT antiproliferative assay, HeLa. The class given is cell-based, human. The conditions noted are these: Homo sapiens, read-out: In vitro antiproliferative activity IC50, HeLa. On the procedure: as §1
Another data set has as its system MCF-7 cells. The data set can be described thus: MTT antiproliferative assay, MCF-7. The class given is cell-based, human. The conditions noted are these: Homo sapiens, MCF7, read-out: In vitro antiproliferative activity IC50, MCF-7. On the procedure:
as §1

In data set [2] the target is epidermal growth factor receptor (EGFR) (Homo sapiens, UniProt P00533). The data set is described as follows: EGFR kinase inhibition, solid-phase ELISA assay.
epidermal growth factor receptor (EGFR), sequence (P00533 25-1210): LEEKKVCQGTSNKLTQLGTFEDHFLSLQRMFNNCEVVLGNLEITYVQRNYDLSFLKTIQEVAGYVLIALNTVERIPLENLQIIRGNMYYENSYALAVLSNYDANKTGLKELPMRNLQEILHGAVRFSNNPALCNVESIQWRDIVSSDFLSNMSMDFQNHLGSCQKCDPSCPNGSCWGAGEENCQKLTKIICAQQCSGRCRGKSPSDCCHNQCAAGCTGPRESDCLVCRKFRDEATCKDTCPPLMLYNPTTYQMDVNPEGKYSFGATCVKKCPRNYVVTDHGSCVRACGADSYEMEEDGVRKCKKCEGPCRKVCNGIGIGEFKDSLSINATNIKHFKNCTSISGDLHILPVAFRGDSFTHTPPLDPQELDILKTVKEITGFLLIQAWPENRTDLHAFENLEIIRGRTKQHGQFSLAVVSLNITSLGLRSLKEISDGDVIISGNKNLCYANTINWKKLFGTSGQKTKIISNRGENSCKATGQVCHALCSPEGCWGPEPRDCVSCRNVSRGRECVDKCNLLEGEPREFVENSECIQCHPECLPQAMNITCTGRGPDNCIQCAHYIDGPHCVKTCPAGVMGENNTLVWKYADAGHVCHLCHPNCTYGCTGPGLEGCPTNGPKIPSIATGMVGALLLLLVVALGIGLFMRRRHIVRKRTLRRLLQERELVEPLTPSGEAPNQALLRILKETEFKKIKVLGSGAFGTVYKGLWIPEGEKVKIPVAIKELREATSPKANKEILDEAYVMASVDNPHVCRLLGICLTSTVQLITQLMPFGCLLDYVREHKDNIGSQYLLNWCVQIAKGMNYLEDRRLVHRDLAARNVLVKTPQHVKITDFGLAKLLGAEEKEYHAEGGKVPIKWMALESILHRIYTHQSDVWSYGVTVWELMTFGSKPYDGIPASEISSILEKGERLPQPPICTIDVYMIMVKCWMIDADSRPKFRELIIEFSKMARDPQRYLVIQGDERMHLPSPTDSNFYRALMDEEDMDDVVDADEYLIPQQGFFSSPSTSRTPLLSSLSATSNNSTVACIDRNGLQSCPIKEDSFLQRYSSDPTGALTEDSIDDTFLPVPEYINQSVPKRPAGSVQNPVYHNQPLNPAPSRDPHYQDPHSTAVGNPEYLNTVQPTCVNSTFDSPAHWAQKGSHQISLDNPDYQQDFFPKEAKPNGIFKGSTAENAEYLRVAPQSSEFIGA
Description: All these newly synthesized compounds were evaluated for their inhibitory activities against EGFR kinases using a solid-phase ELISA assay.
EGFR tyrosine kinase activity was determined by an enzyme linked-immunosorbent assay (ELISA) in 96-well plates precoated in a 10 mL reaction volume including 4 mL diluted test compounds, 4 mL substrate and 2 mL ATP. […] The plates were then aspirated and washed twice with 200 mL 0.9% (w/v) NaCl, and incorporation of Pi was determined with an LX300 Epson Diagnostic microplate reader. […] The experiments were replicated at least three times to verify the methodology reproducibility when using the above-mentioned conditions.

For `COc1ccc(/C=N/NC(=O)c2ccc(N3N=C(c4ccc(Cl)cc4)CC3c3ccc4ccccc4c3)cc2)cc1` (stereo not drawn) [Compound H30, (E)-4-(3-(4-Chlorophenyl)-5-(naphthalen-2-yl)-4,5-dihydro-1H-pyrazol-1-yl)-N′-(4-methoxybenzylidene)-benzohydrazide], the melting point – broadly, the temperature of the solid-liquid transition – was in the range of 237 to 239 °C. Also, the IC50 (in general, the concentration at which inhibition is half-maximal) with A549 cells amounted to 28.6 µM. For the same compound, in the data set with HepG2 cells, the IC50 came to 38.2 µM. In data set [1], the CC50 (usually the concentration giving 50% cytotoxicity) at 24 h was found to be 88.5 µM. Also, the concentration for half-maximal inhibition (IC50) with HeLa cells came out at 35.3 µM. Also, the half-maximal inhibitory concentration (IC50) in the data set with MCF-7 cells was 40.4 µM. The compound also came in with an IC50 in data set [2] of 10 µM.
Regarding `COc1cccc(/C=N/NC(=O)c2ccc(N3N=C(c4cccc(Cl)c4)CC3c3ccc4ccccc4c3)cc2)c1` (stereo not drawn) [Compound H13, (E)-4-(3-(3-Chlorophenyl)-5-(naphthalen-2-yl)-4,5-dihydro-1H-pyrazol-1-yl)-N′-(3-methoxybenzylidene)-benzohydrazide], the melting point was in the range of 231 to 233 °C. In the data set on A549 cells, the IC50 was determined as 35.2 µM. Besides, in the data set on HepG2 cells, the IC50 was determined as 45.4 µM. Further, in data set [1], half-maximal cytotoxicity (CC50 at 24 h) was put at 93.4 µM. Besides, in the data set on HeLa cells, the IC50 is 46.4 µM. The IC50 with MCF-7 cells is 51.3 µM. Moreover, half-maximal inhibition in data set [2] (IC50) was put at 11.9 µM.
Compound `COc1ccc(/C=N/NC(=O)c2ccc(N3N=C(c4cc(F)cc(F)c4)CC3c3ccc4ccccc4c3)cc2)cc1` (stereo not drawn) [Compound H28, (E)-4-(3-(3,5-Difluorophenyl)-5-(naphthalen-2-yl)-4,5-dihydro-1H-pyrazol-1-yl)-N′-(4-methoxy-benzylidene)benzohydrazide] yielded a melting point of 238 to 240 °C. In addition, in the data set with A549 cells, the IC50 stood at 39.4 µM. Besides, in the data set on HepG2 cells, the IC50 is 48.1 µM. The midpoint of cytotoxicity in data set [1], the CC50 at 24 h, lay at 82.2 µM. For the same compound, the IC50 with HeLa cells was 47.7 µM. In addition, the IC50 in the data set with MCF-7 cells stood at 56.1 µM. Besides, the IC50 in data set [2] was 12.3 µM.
Compound `COc1ccc(/C=N/NC(=O)c2ccc(N3N=C(c4ccc(Br)cc4)CC3c3ccc4ccccc4c3)cc2)cc1` (stereo not drawn) [Compound H32, (E)-4-(3-(4-Bromophenyl)-5-(naphthalen-2-yl)-4,5-dihydro-1H-pyrazol-1-yl)-N′-(4-methoxybenzylidene)-benzohydrazide] yielded a melting point of 238 to 240 °C. Further, the IC50 in the data set with A549 cells was 19.7 µM. Besides, the IC50 with HepG2 cells was determined as 32.9 µM. In addition, it took 83.6 µM to reach half-maximal cytotoxicity in data set [1] (CC50 at 24 h). Moreover, the IC50 with HeLa cells was determined as 25.6 µM. For the same compound, the IC50 with MCF-7 cells is 30.2 µM. This compound also showed a 50% inhibitory concentration (IC50) in data set [2] of 8.64 µM.
As for `COc1cccc(/C=N/NC(=O)c2ccc(N3N=C(c4ccc(Cl)c(Cl)c4)CC3c3ccc4ccccc4c3)cc2)c1` (stereo not drawn) [Compound H15, (E)-4-(3-(3,4-Dichlorophenyl)-5-(naphthalen-2-yl)-4,5-dihydro-1H-pyrazol-1-yl)-N′-(3-methoxy-benzylidene)benzohydrazide], the melting point is 234 to 236 °C. Further, the 50% inhibitory concentration (IC50) with A549 cells worked out at 26.6 µM. The IC50 in the data set on HepG2 cells amounted to 38.9 µM. In data set [1], this compound had a CC50 at 24 h of 88.2 µM. Besides, the IC50 in the data set with HeLa cells came to 33.6 µM. In addition, the IC50 in the data set with MCF-7 cells is 35.2 µM. Half-maximal inhibition in data set [2] (IC50) required 9.87 µM.
`COc1ccc(/C=N/NC(=O)c2ccc(N3N=C(c4cc(OC)c(OC)c(OC)c4)CC3c3ccc4ccccc4c3)cc2)cc1` (stereo not drawn) [Compound H23, (E)-N′-(4-Methoxybenzylidene)-4-(5-(naphthalen-2-yl)-3-(3,4,5-trimethoxyphenyl)-4,5-dihydro-1H-pyrazol-1-yl)benzohydrazide] showed a melting point of 237 to 239 °C. Further, in the data set with A549 cells, the IC50 amounted to 75.7 µM. Further, the IC50 with HepG2 cells was determined as 89.5 µM. The same compound registered a CC50 at 24 h in data set [1] of 85.8 µM. Further, the half-maximal inhibitory concentration (IC50) in the data set with HeLa cells was found to be 94.1 µM. The IC50 with MCF-7 cells is 93.2 µM. Further, half-maximal inhibition in data set [2] (IC50) required 24.6 µM.

These data come from publication PMC6273578, “Design, Synthesis and Biological Evaluation of Benzohydrazide Derivatives Containing Dihydropyrazoles as Potential EGFR Kinase Inhibitors” (Molecules, 2016).
